Pest or weed control data for 28 compounds are collected here from patent US8895568B2, “Compositions comprising substituted pteridines as agrochemicals” (Dow AgroSciences LLC, priority 2009, dated 2014).

Read-outs that look alike come from different tables or passages of the source.

What all share (assay type): in vivo
The subject of assay [1] is Colletotricum lagenarium. The assay can be described thus: Cucumber Anthracnose (COLLLA), foliar spray, percent disease control. The method, then:
The activity of the compounds as effective fungicides was determined by applying the compounds to plants and observing control of fungal disease. The compounds were formulated at 200 ppm in 10 vol. % acetone plus 90 vol. % Triton X water (deionized water 99.99 wt %+0.01 wt % Triton X100), giving a “formulated test compound.” In a few cases, compounds were formulated at 75 or 8.3 ppm rather than 200 ppm in 10 vol. % acetone plus 90 vol. % Triton X water (deionized water 99.99 wt. %+0.01 wt. % Triton X100), giving a “formulated test compound.” Formulated test compounds were applied to plants using a turn table sprayer fitted with two opposing air atomization nozzles which delivered approximately 1500 L/ha of spray volume. All plants were inoculated with spores of the fungus the day after treatment, then incubated in an environment conducive to disease development. Disease severity was evaluated 4 to 15 days later, depending on the disease and the speed of disease development. The following experiments were performed in the laboratory to determine the fungicidal efficacy of the compounds of the invention. Cucumber Anthracnose (causal agent Colletotricum lagenarium; Bayer code COLLLA): Cucumber plants (variety Bush Champion) were grown from seed in a soil-less peat-based potting mixture (Metromix) until the first true leaf was 20-80% expanded. Each pot contained 1 seedling. These plants were sprayed until wet with the formulated test compound. On the following day, the leaves were inoculated with an aqueous spore suspension of Colletotricum lagenarium and the plants were kept in high humidity for one day to permit spores to germinate and infect the leaf. The plants were then transferred to a growth chamber until disease developed on untreated control plants. […] The effectiveness of the test compounds at controlling disease when sprayed on leaves was determined by assessing the severity of disease on treated plants, then converting the severity to percent control based on the level of disease on untreated, inoculated plants. Data are the level (in percent) at which the given disease was controlled when the given compound was applied to the foliage of the plants at 200 ppm. In a few cases (noted in the table) the compound was applied to the plants at 75 ppm or 8.3 ppm.

Assay [2] relates to Pseudoperonospora cubensis. The assay can be described thus: Cucumber Downy Mildew (PSPECU), foliar spray, percent disease control. Particulars: read-out: PSPECU percent control. On the procedure:
The activity of the compounds as effective fungicides was determined by applying the compounds to plants and observing control of fungal disease. The compounds were formulated at 200 ppm in 10 vol. % acetone plus 90 vol. % Triton X water (deionized water 99.99 wt %+0.01 wt % Triton X100), giving a “formulated test compound.” In a few cases, compounds were formulated at 75 or 8.3 ppm rather than 200 ppm in 10 vol. % acetone plus 90 vol. % Triton X water (deionized water 99.99 wt. %+0.01 wt. % Triton X100), giving a “formulated test compound.” Formulated test compounds were applied to plants using a turn table sprayer fitted with two opposing air atomization nozzles which delivered approximately 1500 L/ha of spray volume. All plants were inoculated with spores of the fungus the day after treatment, then incubated in an environment conducive to disease development. Disease severity was evaluated 4 to 15 days later, depending on the disease and the speed of disease development. The following experiments were performed in the laboratory to determine the fungicidal efficacy of the compounds of the invention. Cucumber Downy Mildew (causal agent Pseudoperonospora cubensis; Bayer code […]): Cucumber plants (variety Bush Champion) were grown from seed in a soil-less peat-based potting mixture (Metromix) until the first true leaf was 20-80% expanded. Each pot contained 1 seedling. These plants were sprayed until wet with the formulated test compound. On the following day, the leaves were inoculated with an aqueous suspension of downy mildew sporangia and the plants were kept in high humidity for one day to permit sporangia to germinate and infect the leaf. The plants were then incubated in a growth chamber until disease developed on untreated control plants. […] The effectiveness of the test compounds at controlling disease when sprayed on leaves was determined by assessing the severity of disease on treated plants, then converting the severity to percent control based on the level of disease on untreated, inoculated plants. Data are the level (in percent) at which the given disease was controlled when the given compound was applied to the foliage of the plants at 200 ppm. In a few cases (noted in the table) the compound was applied to the plants at 75 ppm or 8.3 ppm.

Assay [3] concerns Cochliobolus sativus. As to the kind of experiment: Spot Blotch of Wheat (COCHSA), foliar spray, percent disease control.
[4] abbreviates: Bipolaris sorokiniana, foliar; read-out: COCHSA percent control.
Setting [5] is: Bipolaris sorokiniana, foliar, read-out: COCHSA percent control.

Regarding `Oc1ccc(CCNc2ncnc3ncc(Cl)nc23)cc1` [Compound 73], the pest or weed control at 200 µg/mL in assay [1] (foliar), in assay [2] (foliar) and in assay [3] (setting [4]) was 0 to 49% each time.
For `CC(Nc1ncnc2nccnc12)c1ccccc1` (stereo not drawn) [Compound 9], the values for the pest or weed control at 200 µg/mL in assay [1] (foliar), in assay [2] (foliar) and in assay [3] (setting [4]) were 0 to 49%, 80 to 100% and 0 to 49%, respectively.
In the case of `COc1cc(C(F)(F)F)cc(Oc2ccc(CCNc3ncnc4nccnc34)cc2C)n1` [Compound 167], the results for the pest or weed control at 200 µg/mL in assay [1] (foliar), in assay [2] (foliar) and in assay [3] (setting [4]) were 0 to 49%, 80 to 100% and 0 to 49%, respectively.
Turning to `N#Cc1cc2ccccc2nc1Oc1ccc(CCNc2ncnc3nccnc23)cc1` [Compound 127], the pest or weed control at 200 µg/mL in assay [1] (foliar) lay within 0 to 49%; in assay [2] (foliar) it was 50 to 79%; in assay [3] (setting [4]) it was 0 to 49%.
As for `COc1ccnc(Oc2ccc(CCNc3ncnc4nccnc34)cc2)n1` [Compound 16], the figures for the pest or weed control at 200 µg/mL in assay [1] (foliar), in assay [2] (foliar) and in assay [3] (setting [4]) were 0 to 49%, 80 to 100% and 0 to 49%, respectively.
With `Cc1cc(Oc2cc(C(F)(F)F)ccn2)ccc1OCCNc1ncnc2nccnc12` [Compound 201], the pest or weed control at 200 µg/mL in assay [1] (foliar spray) was 0 to 49%; in assay [2] (foliar spray), 80 to 100%; in assay [3] (Bipolaris sorokiniana; foliar spray; read-out: COCHSA percent control) it was 0 to 49%.
Regarding `CC(C)(C)OC(=O)N(CCc1ccc(O[Si](C)(C)C(C)(C)C)cc1)c1ncnc2nccnc12` [Compound 134, {2-[4-(tert-Butyldimethylsilanyloxy)-phenyl]-ethyl}-pteridin-4-yl-carbamic acid tert-butyl ester], the pest or weed control at 200 µg/mL in assay [1] (foliar), in assay [2] (foliar) and in assay [3] (setting [5]) was 0 to 49% each time.
For the compound `Brc1nsc(Oc2ccc(CCNc3ncnc4nccnc34)cc2)n1` [Compound 33], the pest or weed control at 200 µg/mL in assay [1] (foliar), in assay [2] (foliar) and in assay [3] (setting [4]) was 0 to 49% throughout.
Take `Oc1ccc(CCNc2ncnc3nccnc23)cc1` [Compound 4, 4-[2-(Pteridin-4-ylamino)-ethyl]-phenol]: the pest or weed control at 200 µg/mL in assay [1] (foliar), in assay [2] (foliar) and in assay [3] (setting [4]) was 0 to 49% each time.
Regarding `FC(F)(F)c1cnccc1Oc1cccc(CCNc2ncnc3nccnc23)c1` [Compound 77], the results for the pest or weed control at 200 µg/mL in assay [1] (foliar), in assay [2] (foliar) and in assay [3] (setting [4]) were 0 to 49%, 80 to 100% and 0 to 49%, respectively.
With `c1ccc(-c2nsc(Oc3ccc(CCNc4ncnc5nccnc45)cc3)n2)cc1` [Compound 22], the values for the pest or weed control at 200 µg/mL in assay [1] (foliar), in assay [2] (foliar) and in assay [3] (setting [4]) were 50 to 79%, 50 to 79% and 0 to 49%, respectively.
`Cc1c(O)ccc(CCNc2ncnc3nccnc23)c1C` [Compound 175]: the pest or weed control at 200 µg/mL in assay [1] (foliar), in assay [2] (foliar) and in assay [3] (setting [4]) was 0 to 49% each time.
For the compound `CC(F)(F)c1ccnc(Oc2ccc(CCNc3ncnc4nccnc34)cc2F)c1` [Compound 193], the pest or weed control at 200 µg/mL was 0 to 49% in assay [1] (foliar), 80 to 100% in assay [2] (foliar) and 0 to 49% in assay [3] (setting [4]).
For the compound `Fc1nc(C(F)(F)F)c(F)c(Oc2ccc(CCNc3ncnc4nccnc34)cc2)c1F` [Compound 89], the figures for the pest or weed control at 200 µg/mL in assay [1] (foliar), in assay [2] (foliar) and in assay [3] (setting [4]) were 0 to 49%, 80 to 100% and 0 to 49%, respectively.
In the case of `COc1cc(C(F)(F)F)cc(Oc2ccc(CCNc3ncnc4nccnc34)cc2OC)n1` [Compound 178], the pest or weed control at 200 µg/mL in assay [1] (foliar), in assay [2] (foliar) and in assay [3] (setting [4]) was 0 to 49% in each case.
With `Fc1nc(F)c(F)c(Oc2ccc(CCNc3ncnc4nccnc34)cc2)c1F` [Compound 94], the values for the pest or weed control at 200 µg/mL in assay [1] (foliar), in assay [2] (foliar) and in assay [3] (setting [4]) were 50 to 79%, 50 to 79% and 0 to 49%, respectively.
Consider `O=C(c1ccnc(Oc2ccc(CCNc3ncnc4nccnc34)cc2)c1)C1CC1` [Compound 64], for which the results for the pest or weed control at 200 µg/mL in assay [1] (foliar), in assay [2] (foliar) and in assay [3] (setting [4]) were 0 to 49%, 80 to 100% and 0 to 49%, respectively.
As to `COc1ccc(C(C)Nc2nc(C)nc3nccnc23)cc1` (stereo not drawn) [Compound 19, [1-(4-Methoxyphenyl)ethyl]-2-methylpteridin-4-yl-amine], the pest or weed control at 200 µg/mL in assay [1] (foliar), in assay [2] (foliar) and in assay [3] (setting [4]) was 0 to 49% in each case.
For `COc1cc(CCNc2ncnc3nccnc23)cc(OC)c1Oc1cc(C(F)(F)F)ccn1` [Compound 186], the pest or weed control at 200 µg/mL in assay [1] (foliar) lay in the range of 0 to 49%; in assay [2] (foliar), 80 to 100%; in assay [3] (setting [4]) it was 0 to 49%.
Take `Oc1ccc(CCNc2ncnc3nccnc23)cc1F` [Compound 177]: the pest or weed control at 200 µg/mL in assay [1] (foliar), in assay [2] (foliar) and in assay [3] (setting [4]) was 0 to 49% throughout.
Regarding `CC(F)(F)c1cc[n+]([O-])c(Oc2ccc(CCNc3ncnc4nccnc34)cc2)c1` [Compound 184, (2-{4-[4-(1,1-difluoroethyl)-1-oxy-pyridin-2-yloxy]-phenyl}-ethyl)-pteridin-4-yl-amine], the figures for the pest or weed control at 200 µg/mL in assay [1] (foliar), in assay [2] (foliar) and in assay [3] (setting [4]) were 50 to 79%, 80 to 100% and 0 to 49%, respectively.
Turning to `CC(C)(C)[Si](C)(C)Oc1ccc(CCNc2ncnc3nccnc23)cc1` [Compound 133, {2-[4-(tert-Butyldimethylsilanyloxy)-phenyl]-ethyl}-pteridin-4-yl-amine], the values for the pest or weed control at 200 µg/mL in assay [1] (foliar), in assay [2] (foliar) and in assay [3] (setting [5]) were 0 to 49%, 80 to 100% and 0 to 49%, respectively.
As for `CC(Nc1ncnc2nccnc12)c1ccc(O)cc1` (stereo not drawn) [Compound 65, 4-[1-(Pteridin-4-ylamino)-ethyl]-phenol], the pest or weed control at 200 µg/mL was in the range of 0 to 49% in assay [1] (foliar), 50 to 79% in assay [2] (foliar) and 0 to 49% in assay [3] (setting [4]).
Take `Cc1cc(C(F)(F)F)cc(Oc2ccc(CCNc3ncnc4nccnc34)cc2)n1` [Compound 69]: the pest or weed control at 200 µg/mL in assay [1] (foliar) lay within 80 to 100%; in assay [2] (foliar), 80 to 100%; in assay [3] (setting [4]), 0 to 49%.
Take `COC(=O)c1ccnc(Oc2ccc(CCNc3ncnc4nccnc34)cc2)c1` [Compound 135]: the pest or weed control at 200 µg/mL in assay [1] (foliar) lay within 0 to 49%; in assay [2] (foliar), 80 to 100%; in assay [3] (setting [4]), 0 to 49%.
As for `COc1cc(C)c(CCNc2ncnc3nccnc23)cc1C` [Compound 151], the pest or weed control at 200 µg/mL was 0 to 49% in assay [1] (foliar), 80 to 100% in assay [2] (foliar) and 0 to 49% in assay [3] (setting [4]).
In the case of `COc1cc(C(F)(F)F)cc(Oc2ccc(CCNc3ncnc4nccnc34)cc2)n1` [Compound 171], the pest or weed control at 200 µg/mL in assay [1] (foliar) lay in the range of 0 to 49%; in assay [2] (foliar) it was 80 to 100%; in assay [3] (setting [4]) it was 0 to 49%.
Turning to `O=Cc1cc(C(F)(F)F)ccc1Oc1ccc(CCNc2ncnc3nccnc23)cc1` [Compound 100], the pest or weed control at 200 µg/mL lay in the range of 0 to 49% in assay [1] (foliar), 80 to 100% in assay [2] (foliar) and 0 to 49% in assay [3] (setting [4]).
